Measurements reported in ChEMBL document CHEMBL4619754, “Discovery of novel, potent, and orally bioavailable pyrido[2,3-d][1]benzazepin-6-one antagonists for parathyroid hormone receptor 1” (Bioorg Med Chem, 2020).
Values after ≈ are worked out from the molar mass of the structure shown.

Columns and labels:
[1] = Metabolic stability in rat liver microsomes assessed as parent compound remaining at 1 uM in presence of NADPH generating system measured after 20 mins by LC-MS/MS analysis; type: ADME, Microsome; conditions: read-out: Stability
[2] = Drug degradation in HCL/CH2Cl2 by TLC analysis; type: physicochemical; conditions: read-out: Drug degradation
[3] = Solubility of the compound in JP1 fluid at pH 1.2; type: physicochemical
[4] = Solubility of the compound in JP2 buffer at pH 6.8; type: physicochemical
[5] = molecular target: T1, Parathyroid hormone/parathyroid hormone-related peptide receptor (Homo sapiens, UniProt Q03431); experiment: Antagonist activity at PTHR1 (unknown origin) expressed in CHOK1 cells co-expressing Gs/Gq assessed as reduction in human PTH (1 to 34 residues)-induced cAMP level incubated for 30 mins; type: functional, cell-based, CHO-K1
T1 sequence (Q03431 whole entry): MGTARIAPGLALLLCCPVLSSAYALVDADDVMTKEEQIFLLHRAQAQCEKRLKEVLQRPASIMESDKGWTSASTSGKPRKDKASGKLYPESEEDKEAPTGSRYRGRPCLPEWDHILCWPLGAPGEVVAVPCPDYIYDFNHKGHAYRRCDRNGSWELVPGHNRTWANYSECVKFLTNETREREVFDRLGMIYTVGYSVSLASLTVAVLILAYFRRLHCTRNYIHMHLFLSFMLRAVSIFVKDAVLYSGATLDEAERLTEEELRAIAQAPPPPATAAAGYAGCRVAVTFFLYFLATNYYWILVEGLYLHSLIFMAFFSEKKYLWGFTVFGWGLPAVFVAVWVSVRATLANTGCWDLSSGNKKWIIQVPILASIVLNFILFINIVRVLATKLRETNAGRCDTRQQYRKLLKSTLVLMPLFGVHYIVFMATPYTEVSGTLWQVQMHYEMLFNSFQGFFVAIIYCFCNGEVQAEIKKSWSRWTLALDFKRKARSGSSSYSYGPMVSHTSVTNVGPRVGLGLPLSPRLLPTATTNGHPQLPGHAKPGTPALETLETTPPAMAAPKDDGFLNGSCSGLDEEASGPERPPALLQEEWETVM

[6] = Volume of distribution at steady state in Sprague-Dawley rat at 1 mg/kg, iv by LC-MS/MS analysis; type: ADME, organism-based; conditions: in vivo, read-out: Vdss
[7] = molecular target: CYP2C19 (Homo sapiens, UniProt P33261); experiment: Inhibition of CYP2C19 (unknown origin) at 10 uM relative to control; type: ADME
[8] = molecular target: CYP3A4 (Homo sapiens, UniProt P08684); experiment: Inhibition of CYP3A4 (unknown origin) at 10 uM relative to control; type: ADME
[9] = Plasma clearance in Sprague-Dawley rat at 1 mg/kg, iv by LC-MS/MS analysis; type: ADME, organism-based
[10] = molecular target: T2, CYP2C8 (Homo sapiens, UniProt P10632); experiment: Inhibition of CYP2C8 (unknown origin) at 10 uM relative to control; type: ADME
T2 sequence (P10632 whole entry): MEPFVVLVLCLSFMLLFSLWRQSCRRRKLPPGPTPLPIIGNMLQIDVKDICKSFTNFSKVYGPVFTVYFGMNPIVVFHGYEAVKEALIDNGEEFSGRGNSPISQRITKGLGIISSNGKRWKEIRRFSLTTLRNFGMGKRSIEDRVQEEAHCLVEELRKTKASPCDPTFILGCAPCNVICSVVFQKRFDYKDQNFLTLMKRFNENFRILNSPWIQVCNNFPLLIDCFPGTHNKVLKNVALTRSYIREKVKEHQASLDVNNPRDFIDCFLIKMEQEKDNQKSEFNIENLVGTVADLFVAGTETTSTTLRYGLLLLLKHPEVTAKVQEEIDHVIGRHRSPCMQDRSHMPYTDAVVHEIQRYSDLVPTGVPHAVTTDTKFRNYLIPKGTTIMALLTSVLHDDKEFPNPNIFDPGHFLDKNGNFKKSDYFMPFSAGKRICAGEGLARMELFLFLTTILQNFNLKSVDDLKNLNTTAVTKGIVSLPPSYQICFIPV

[11] = molecular target: CYP2C9 (Homo sapiens, UniProt P11712); experiment: Inhibition of CYP2C9 (unknown origin) at 10 uM relative to control; type: ADME
[12] = Oral bioavailability in Sprague-Dawley rat at 10 mg/kg by LC-MS/MS analysis; type: ADME, organism-based; conditions: in vivo
[13] = AUClast in Sprague-Dawley rat at 5 mg/kg, po by LC-MS/MS analysis; type: ADME, organism-based; design: dose 5 mg/kg, time 0 - last, route oral; conditions: in vivo
[14] = 1-Octanol/PBS buffer distribution coefficient, log D of the compound at pH 7.4; type: physicochemical
[15] = molecular target: CYP2D6 (Homo sapiens, UniProt P10635); experiment: Inhibition of CYP2D6 (unknown origin) at 10 uM relative to control; type: ADME
[16] = Elimination half life in Sprague-Dawley rat at 5 mg/kg, po by LC-MS/MS analysis; type: ADME, organism-based; conditions: in vivo, read-out: BBB (converted)
[17] = molecular target: T3, CYP1A2 (Homo sapiens, UniProt P05177); experiment: Inhibition of CYP1A2 (unknown origin) at 10 uM relative to control; type: ADME
T3 sequence (P05177 whole entry): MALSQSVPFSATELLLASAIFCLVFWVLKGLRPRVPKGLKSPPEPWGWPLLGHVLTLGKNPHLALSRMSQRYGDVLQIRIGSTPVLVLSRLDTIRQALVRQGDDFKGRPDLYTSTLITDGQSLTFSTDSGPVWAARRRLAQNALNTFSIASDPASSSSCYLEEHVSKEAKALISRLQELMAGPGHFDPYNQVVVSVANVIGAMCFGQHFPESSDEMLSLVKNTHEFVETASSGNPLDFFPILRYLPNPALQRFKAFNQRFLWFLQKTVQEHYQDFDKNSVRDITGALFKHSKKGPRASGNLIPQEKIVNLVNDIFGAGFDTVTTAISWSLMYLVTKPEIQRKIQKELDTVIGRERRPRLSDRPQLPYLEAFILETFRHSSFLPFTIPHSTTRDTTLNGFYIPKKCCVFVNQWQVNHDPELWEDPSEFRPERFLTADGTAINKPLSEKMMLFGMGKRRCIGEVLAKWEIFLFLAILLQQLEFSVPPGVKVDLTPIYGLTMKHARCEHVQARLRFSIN

Sequence of CYP2C19 (P33261 whole entry): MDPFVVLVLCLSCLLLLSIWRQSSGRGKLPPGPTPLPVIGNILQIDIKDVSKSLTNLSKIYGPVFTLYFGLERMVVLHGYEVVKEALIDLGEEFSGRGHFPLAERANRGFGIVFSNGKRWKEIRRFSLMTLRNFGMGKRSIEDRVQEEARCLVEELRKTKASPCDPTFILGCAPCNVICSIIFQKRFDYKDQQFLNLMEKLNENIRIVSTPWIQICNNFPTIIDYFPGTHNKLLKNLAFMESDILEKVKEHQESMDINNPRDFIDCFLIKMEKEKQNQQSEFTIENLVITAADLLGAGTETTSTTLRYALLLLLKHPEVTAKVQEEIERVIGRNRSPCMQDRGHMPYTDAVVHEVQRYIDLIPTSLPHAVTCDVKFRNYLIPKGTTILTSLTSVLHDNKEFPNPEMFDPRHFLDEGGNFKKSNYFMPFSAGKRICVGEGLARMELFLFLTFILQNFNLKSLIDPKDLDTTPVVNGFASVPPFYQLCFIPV
Sequence of CYP2D6 (P10635 whole entry): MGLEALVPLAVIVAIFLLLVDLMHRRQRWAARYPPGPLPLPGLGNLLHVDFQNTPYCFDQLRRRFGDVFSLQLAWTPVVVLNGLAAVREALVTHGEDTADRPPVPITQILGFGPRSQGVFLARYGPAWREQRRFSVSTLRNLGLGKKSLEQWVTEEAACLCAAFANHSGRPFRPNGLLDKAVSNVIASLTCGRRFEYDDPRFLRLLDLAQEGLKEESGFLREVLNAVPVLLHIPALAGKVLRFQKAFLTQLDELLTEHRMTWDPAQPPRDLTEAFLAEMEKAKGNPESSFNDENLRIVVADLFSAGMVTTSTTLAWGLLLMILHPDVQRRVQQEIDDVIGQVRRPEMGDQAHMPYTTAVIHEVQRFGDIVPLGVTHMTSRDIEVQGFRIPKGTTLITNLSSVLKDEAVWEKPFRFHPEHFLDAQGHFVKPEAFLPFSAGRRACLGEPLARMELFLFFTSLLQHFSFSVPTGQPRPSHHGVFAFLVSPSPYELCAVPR
Sequence of CYP3A4 (P08684 whole entry): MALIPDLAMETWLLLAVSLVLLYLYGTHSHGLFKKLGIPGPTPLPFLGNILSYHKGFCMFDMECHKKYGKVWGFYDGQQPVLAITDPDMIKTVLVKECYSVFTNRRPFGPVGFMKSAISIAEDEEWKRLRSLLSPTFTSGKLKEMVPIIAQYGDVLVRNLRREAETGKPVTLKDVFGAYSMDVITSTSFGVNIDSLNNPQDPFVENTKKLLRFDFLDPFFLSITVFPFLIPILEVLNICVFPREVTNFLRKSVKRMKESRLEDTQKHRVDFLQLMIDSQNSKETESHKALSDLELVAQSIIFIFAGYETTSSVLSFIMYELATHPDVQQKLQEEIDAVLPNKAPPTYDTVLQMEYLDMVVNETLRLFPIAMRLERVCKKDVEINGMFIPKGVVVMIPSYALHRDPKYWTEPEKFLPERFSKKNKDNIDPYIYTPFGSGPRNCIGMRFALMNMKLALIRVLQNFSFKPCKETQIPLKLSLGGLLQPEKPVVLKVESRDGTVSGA
Sequence of CYP2C9 (P11712 whole entry): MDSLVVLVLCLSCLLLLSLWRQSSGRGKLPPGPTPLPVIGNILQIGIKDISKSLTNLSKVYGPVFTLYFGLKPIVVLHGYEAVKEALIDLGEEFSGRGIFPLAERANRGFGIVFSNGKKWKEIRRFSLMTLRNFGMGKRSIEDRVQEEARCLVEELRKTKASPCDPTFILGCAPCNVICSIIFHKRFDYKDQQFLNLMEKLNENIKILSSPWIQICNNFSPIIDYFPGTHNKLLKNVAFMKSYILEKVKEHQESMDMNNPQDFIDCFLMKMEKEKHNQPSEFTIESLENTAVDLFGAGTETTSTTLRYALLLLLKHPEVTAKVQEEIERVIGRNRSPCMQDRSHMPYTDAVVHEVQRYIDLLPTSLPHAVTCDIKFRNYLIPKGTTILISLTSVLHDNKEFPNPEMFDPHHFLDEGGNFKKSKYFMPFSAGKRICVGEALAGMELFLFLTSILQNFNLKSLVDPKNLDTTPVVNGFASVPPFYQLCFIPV

Compound | remaining at 20 min, 1 µM [1] [%] | solubility [3] [µg/mL] | solubility [4] [µg/mL] | IC50 [5] [µM] | further results
CC1(C)N=C(C2CCCCC2)c2ccc(C#N)cc2N(c2ccc(NCCNC3CCOCC3)cc2)C1=O | 28 | – | – | – | degraded [2]: 100%
CC1(C)C(=O)N(c2ccc(NCCNC3CCOCC3)cc2)c2cc(F)ccc2-c2cc(Cl)cnc21 | 42 | 960 (≈ 1890 µM) | 380 (≈ 747 µM) | – | –
CC1(C)C=C(C2CCCCC2)c2ccc(C#N)cc2N(c2ccc(NCCNC3CCOCC3)cc2)C1=O | 97 | – | – | 8.8 | –
CC1(C)C(=O)N(c2ccc(NCCNC3CCOCC3)cc2)c2cc(Cl)ccc2-c2cc(F)cnc21 | 19 | 920 (≈ 1810 µM) | 470 (≈ 923 µM) | – | –
CC1(C)C(=O)N(c2ccc(NCCNC3CCOCC3)cc2)c2cc(Cl)ccc2-c2cc(Cl)ccc21 | 75 | 36 (≈ 68.6 µM) | 4.7 (≈ 8.96 µM) | – | –
CC(C)N1N=C(C2CCCCC2)c2ccc(Cl)cc2N(c2ccc(NCCNC3CCOCC3)cn2)C1=O | – | – | – | 4.37 | –
COc1ccc2c(c1)N(c1ccc(NCCNC3CCOCC3)cc1)C(=O)C(C)(C)c1ncc(Cl)cc1-2 | 59 | 250 (≈ 480 µM) | 3.8 (≈ 7.29 µM) | – | –
CC1(C)C(=O)N(c2ccc(NCCNC3CCOCC3)cc2)c2cc(C#N)ccc2-c2cc(Cl)cnc21 | 34 | 990 (≈ 1920 µM) | 720 (≈ 1400 µM) | – | –
Cc1ccc2c(c1)N(c1ccc(NCCNC3CCOCC3)cc1)C(=O)C(C)(C)c1ncc(Cl)cc1-2 | 52 | 870 (≈ 1720 µM) | 24 (≈ 47.5 µM) | – | –
CC1(C)C=C(C2CCCCC2)c2ccc(Cl)cc2N(c2ccc(NCCNC3CCOCC3)cc2)C1=O | 58 | – | – | 0.97 | –
CC1(C)C(=O)N(c2ccc(NCCNC3CCOCC3)cc2)c2cc(Cl)ccc2-c2cc(Cl)cnc21 | 65 | 570 (≈ 1080 µM) | 77 (≈ 147 µM) | – | Vd [6]: 29.4 L/kg; inhibition at 10 µM [7]: < 50%; inhibition at 10 µM [8]: < 50%; clearance [9]: 39 mL/min/kg; inhibition at 10 µM [10]: < 50%; inhibition at 10 µM [11]: < 50%; bioavailability [12]: 61%; AUC(0-t) [13]: 2500 ng·h/mL; logD [14]: 3.5; inhibition at 10 µM [15]: < 50%; half-life [16]: 13.1 h; inhibition at 10 µM [17]: < 50%
Cc1cnc2c(c1)-c1ccc(Cl)cc1N(c1ccc(NCCNC3CCOCC3)cc1)C(=O)C2(C)C | 62 | > 980 | 510 (≈ 1010 µM) | – | –
CC1(C)C(=O)N(c2ccc(NCCNC3CCOCC3)cc2)c2cc(Cl)ccc2-c2ccccc21 | 21 | 83 (≈ 169 µM) | 9.1 (≈ 18.6 µM) | 3.2 | –
